From patent US20250188078A1, “SMALL MOLECULE INHIBITORS OF THE CRL4 UBIQUITIN LIGASE” (Cornell University, priority 2022, published 2025) come the findings set out here.

The nature of data set [1]: Dynamic light scattering (DLS) solubility assay. The data set is classed as physicochemical. The conditions noted are these: normalized intensity ratio of 25 μM compound vs DMSO, in PBS. In outline:
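Compounds diluted from DMSO into PBS at final concentrations of 200 μM to 0.78 μM, in triplicate, and aggregation measured by light scattering intensity. A ratio above 2 scores insoluble (−), below 2 soluble (+), and around 2 (+/−).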

For data set [2], the system named is CUL4A^high MDA-MB-468 and CUL4^low (T47D) cells. Kind of data set: Selective killing of CUL4A^high tumors (MDA-MB-468 vs T47D, Cell Titer Glo). The data set is classed as cell-based. The conditions noted are these: FIG. 10, 8 days treatment. How it is done:
CUL4A^high MDA-MB-468 breast cancer cells and CUL4^low (T47D) cells were seeded in 96 well plates. After 24 hours, cells were treated with DMSO or compound PA99. After 8 days treatment, cell viability was examined by using CellTiter Glo kit (Promega #7570) following the manufacturer's guidelines. EC50 concentration was calculated by Prism 8 XY analysis nonlinear regression (curve fit-Log(inhibitor) vs response). Lower EC50 indicates high cell killing potential in CUL4^high MDA-MB-468 cells.

Turning to `CN(c1ccc(-c2nc(C(=O)O)cc3c2[nH]c2ccc(F)cc23)cc1)S(=O)(=O)c1ccccc1` [PA93], the “Solubility (DLS Assay)” value in data set [1] is “-(insoluble)”.
For the compound `CN(c1ccc(-c2nc(C(=O)O)cc3c2[nH]c2cccc(F)c23)cc1)S(=O)(=O)c1ccccc1` [PA99, 5-fluoro-1-(4-(N-methylphenylsulfonamido)phenyl)-9H-pyrido[3,4-b]indole-3-carboxylic acid], the “Killing of CUL4A^high tumors” value in data set [2] is “selective killing”.
